Data on 1 substance can be found in patent US12304894B2, “Derivatives of adamantyl oxadiazoles and pharmaceutically acceptable solvates, hydrates and salts thereof, pharmaceutical composition comprising same, synthesis method, suitable for use as effective and selective inhibitors of the reductase activity of the enzyme 11-beta dehydrogenase type 1 …” (PONTIFICIA UNIVERSIDAD CATOLICA DE CHILE, priority 2019, dated 2025).

Series [1] addresses T1, recombinant 11β-HSD1 enzyme (Homo sapiens (Human), UniProt P28845). Kind of series: 11β-HSD1 reductase activity (HTRF Cortisol Kit). In kind it is biochemical. Particulars: 266 nM cortisone, 333 μM NADPH, read-out: 11b-HSD1 reductase (HTRF) IC50. The protocol: Determination of 11β-HSD1 Reductase Activity
First, stock solutions of the compounds were prepared in DMSO at a concentration of […], of which serial dilutions were made in order to determine the efficacy curve.
As for the recombinant 11β-HSD1 enzyme (Cayman Chemical, MI, USA; Item No. 10007815), it was prepared in Tris Buffer 20 mM EDTA 5 mM pH 6.0 (Tris buffer) at different dilutions.
Initially, the enzyme concentration to be used in the assays in order to evaluate the biological activity of the compounds was determined. The Cortisol Kit product (Cisbio, MA, USA; Cat no. 62CRTPEG) was used for that purpose.
The protocol consisted of preparing the reaction buffer, adding 266 nM cortisone and 333 μM NADPH in Tris buffer. Then, this reaction buffer is added to the wells of the HTRF (Homogeneous Time Resolved Fluorescence) reaction plate together with the enzyme in a 4:1 ratio respectively, and incubated for 2 hours at 37° C. In the case of the control wells, two wells with Tris buffer were added, without compounds.
After the incubation time, the reagents of the Cortisol kit were added, Cortisol d2 and Cortisol cryptate in sample ratio, Cortisol d2 and cortisol cryptate 2:1:1, in a quantity according to the size of the well as indicated by the supplier (for the negative control of the kit, the cortisol d2 is replaced by the kit's reconstitution buffer). This reaction is incubated for 1 hour at room temperature in order to later read the fluorescence at 665 and 620 nm.
Once the enzyme concentration to be used has been determined, the cortisol kit protocol is continued to determine the efficacy curve for the compounds. As previously done, a plate for HTRF was prepared adding to each well of the reaction buffer, the recombinant 11β-HSD1 enzyme and the compounds to be assayed in a 3:1:1 ratio, respectively. The plate was subsequently incubated at 37° C. for 2 hours.
After the incubation time, the reagents of the cortisol kit, cortisol d2 and cortisol cryptate, are added, and were incubated again for 1 hour at room temperature. Finally, the fluorescence of each well was determined at 665 and 620 nm.

The target of series [2] is T1, recombinant 11β-HSD1 enzyme. Put plainly: 11β-HSD1 oxidase activity (HTRF Cortisol Kit). It is filed as biochemical. The protocol:
Determination of 11β-HSD1 Oxidase Activity
The Cortisol Kit (Cisbio) product was used for that purpose.
For the analysis, the compounds are reconstituted in DMSO in a stock of 10 mM concentration, from which serial dilutions were prepared for the efficiency curve.
The recombinant 11β-HSD1 enzyme dilutions were prepared in 20 mM Tris Buffer 5 mM EDTA pH 6.0 (Tris buffer).
Initially, the enzyme concentration to be used was determined. For this purpose, a plate for HRTF was prepared with Tris buffer with 100 nM cortisol and 200 μM NADP+, including in the wells of the plate for HTRF together with the enzyme in a 4:1 ratio, respectively, and incubated for 2 hours at 37° C. After this time, the reagents of the Cortisol kit, Cortisol d2 and Cortisol cryptate in sample ratio, Cortisol d2 and cortisol cryptate 2:1:1 were added, incubating this new reaction for 1 hour at room temperature. Subsequently, the fluorescence was determined at 665 and 620 nm.
An HRTF plate was again prepared, where the reaction buffer, the recombinant 11β-HSD1 enzyme and the compound were added in each well in a 3:1:1 ratio, respectively. The plate was incubated at 37° C. for 2 hours. After the incubation time, the reagents of the cortisol kit, cortisol d2 and cortisol cryptate, were added as indicated above. They were then incubated at room temperature for 1 hour to finally read the fluorescence at 665 and 620 nm.

Series [3] can be described thus: In vivo pharmacokinetics in mice, IV and oral. More on the design: species or system male C57BL/6J mice. The protocol:
The animals were classified according to weight and divided into the following groups (Table 7):
20% Kolliphor and 50% PBS at a concentration of 1 mg/mL. From this solution, a 0.4 mg/mL dilution was made for IV administration.
In intravenous (IV) administration, after each compound was administered to the mice, the mice were separated into groups of 3 and were euthanized at times 5, 10, 15, 30, 60, 120, 240, 260, 480 and 1440 minutes. For oral administration (V.O), the mice were separated into groups of 3 and were euthanized at times 15, 30, 60, 120, 240, 260, 480 and 1440 minutes. To obtain zero-time assays, mice were used to which no compound was administered.
Whole blood was obtained from each animal (in microtubes with EDTA); these samples were centrifuged at 9000 g at a temperature of 4° C. for a period of 5 minutes, obtaining the plasma which was stored at −80° C.
In addition, organs such as brain, liver, muscle, epididymal fat, heart and kidney were obtained from the animals, which were frozen in liquid nitrogen and stored at −80° C.
Plasma samples and brain, liver, epididymal fat, and muscle (tissue) samples were analyzed. 2× in volume of water (weight/volume) was added to the tissue samples while 4× in volume of water (weight/volume) was added to the muscle mixture, after which they were homogenized using a Bullet Blender equipment (Next Advance, USA).
All samples were analyzed as a single point by LC-MS/MS in accordance with the analytical methodology already standardized and presented in application example 3.
To begin, a calibration curve was run. For this purpose, the controls, the plasma and organ samples were prepared by adding 180 μL of cold acetonitrile to these, then vortexed for 15 seconds and centrifuged at 6100 g for 30 seconds at 4° C. The supernatant which was obtained from this procedure was diluted in 2 volumes of 0.2% formic acid in water and transferred to a vial that will allow it to be injected into LC-MS/MS.
The conditions for the LC-MS/MS analysis were: • HPLC: Eksigent UltraLC 100 • Autosampler: Eksigent UltraLC 100-XL at RT • Mobile phase: A-0.1% formic acid in water; B-0.1% formic acid in acetonitrile. • Column: YMC Triart 1.9 μm; 2.0×50 mm • Injection volume: 2 μL • Gradient: 5% B for 0.25 min→5-95% B for 0.75 min→95% B for 2 min→95-5% B for 0.25 min→5% B for 0.25 min • Flow: 0.6 mL/min • Mass Spectrometer: Applied Biosystems/SCIEX QTRAP 4500 • Interface: TurbolonSpray (ESI) at 600° C. • Software: Analyst.

Series [4] deals with Madin-Darby Canine Kidney (MDCK) cells transfected with human P-glycoprotein (hMDR1). Particulars: MDCK-MDR1.
Method: Madin-Darby Canine Kidney (MDCK) cells were used in this assay, which are stably transfected with the gene encoding human P-glycoprotein (hMDR1). These cells were cultured in DMEM medium (Dulbecco's Modified Eagle's Medium) high in glucose and supplemented with 10% fetal bovine serum, 1% 5 mM pyruvate, 1% non-essential amino acids solution X5, 20,000 IU/mL of penicillin G and 20,000 IU/mL of streptomycin, a temperature of 37° C., 90% relative humidity and 5% CO2. These cells were seeded in sterile plates on the fourth day of growth or until reaching 90% confluence.
Ten days before carrying out the transport analysis, cells were seeded in Transwells® inserts (1.12 cm2) at a density of 60,000 cells/cm^2. The monolayers were supplemented every two days with fresh culture medium. […] In parallel, B-A experiments were performed (1.5 mL of donor solution in basolateral compartment and 0.5 mL buffer in apical). The monolayers were incubated while stirring (50 rpm) at a temperature of 37° C. for a period of 2 hours. Additionally, this assay was performed in the presence of the Pgp inhibitor elacridar (5 μM). After the stir time, the inserts were removed, the compartments were sampled and the cells were transferred to HPLC vials by diluting these samples with mobile phase chromatography. These samples were kept at −20° C. until their analysis time. […]

T1 sequence (P28845 whole entry): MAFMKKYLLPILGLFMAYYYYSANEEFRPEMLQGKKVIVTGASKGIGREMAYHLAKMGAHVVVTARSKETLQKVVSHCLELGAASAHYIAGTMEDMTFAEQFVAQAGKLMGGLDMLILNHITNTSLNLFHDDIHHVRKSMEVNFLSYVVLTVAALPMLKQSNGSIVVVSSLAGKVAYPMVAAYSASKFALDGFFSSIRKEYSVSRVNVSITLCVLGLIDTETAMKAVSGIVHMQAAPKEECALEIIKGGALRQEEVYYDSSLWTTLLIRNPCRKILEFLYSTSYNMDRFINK

In the case of “1-(3-pyridyl)-2-(3-adamantyl-1,2,4-oxadiazol-5-yl)ethane [BD-44]”, in series [1], the concentration for half-maximal inhibition (IC50) worked out at 3.9 nM. Moreover, in series [2] (remaining activity at 100 nM compound), the “11b-HSD1 oxidase (activ rem %) 100 nM” value came to 107.0%. In addition, the “11b-HSD1 oxidase (activ rem %) 100 uM” value in series [2] (remaining activity at 100 uM compound) is reported as 94.3%. Besides, in series [3] (IV, 2 mg/Kg, plasma), the AUCExtr was 0.672%, the AUCInf was determined as 369 ng·h/mL, the AUCfinal turned out to be 368 ng·h/mL and the CL came out at 5.42 L/h/kg. In series [3] (IV, 2 mg/Kg, plasma), this substance came in with a Vz of 7.95 L/kg and a t1/2 of 1.02 h. In series [3] (PO, 10 mg/Kg, plasma), this substance showed an AUCExtr of 1.39%, an AUCInf of 148 ng·h/mL, an AUCfinal of 146 ng·h/mL and a CL of 67.3 L/h/kg. In series [3] (PO, 10 mg/Kg, plasma), this substance had an F of 8.00%, a Vz of 102 L/kg, a t1/2 of 1.05 h and a tmax of 30 min. The “mean time (of elimination) of the drug” value in series [3] (administered intravenously, plasma) amounted to 1.02 h. Further, in series [3] (administered orally, plasma), the “mean time (of elimination) of the drug” value was 1.05 h. Besides, the “time post administration up to which compound was detected” value in series [3] (both intravenously and orally, plasma) is listed as “up to 6 hours”. Further, the “detection in tissues (brain, liver, fat, muscle)” value in series [3] (oral and intravenous administration) was “not detected in the tissues assayed”. Besides, the “bioavailability / apparent availability” value in series [3] (plasma) is on record as “low apparent availability”. The “Papp compared with high permeability marker minoxidil” value in series [4] is listed as “higher than those of the high permeability marker minoxidil”.
